Measurements reported in patent US11014902B2, “MYC G-quadruplex stabilizing small molecules and their use” (The United States of America, as represented by the …, priority 2015, dated 2021).

Assays:
[1] = system: myeloma cells; test: Apoptosis (Annexin V/7-AAD staining, FACS); assay type: cell-based, human; conditions: 10 μM, 72 h
Method: To further explore the mechanism of action for the anticancer activity of Compound 1, cell cycle analysis was performed and monitored for potential induction of apoptotic death. […] Additionally, minimal increases in apoptosis were observed, by Annexin V/7-AAD staining and FACS analysis; only 13% of the cells were undergoing apoptosis (FIG. 5B).

[2] = system: CA46 Burkitt's Lymphoma line; test: CA46 cell viability; assay type: cell-based, human
Method: (§1) Since two thirds of multiple myeloma cases involve deregulated c-MYC expression (Kuehl and Bergsagel, Blood 2012, 120, 2351; Shou, et al., Proc Natl Acad Sci USA 2000, 97, 228), we elected to evaluate the cell viability effects of Compound 1 in a multiple myeloma model. […] This suppression was maintained over 72 hours, which is notable given the characteristic rapid replenishment of the protein—a phenomenon that complicates targeting c-Myc at the protein level (FIG. 4C). This effect was maintained across a genetically diverse set of 4 multiple myeloma lines. We observed decreases in c-MYC translation in all lines tested, and this effect also correlated with decreases in viability (FIG. 4D).
Human multiple myeloma and Burkitt's Lymphoma cell lines L363, CA46, MM-1R, KMS-11, and MM-1S were cultured and authenticated as previously described (Simmons, et al., Molecular oncology 2014, 8, 261). All plasma derived cell lines were cultured in RPMI-1640 (2 mM L-glutamine, 10% fetal bovine serum (FBS), 100 U/ml penicillin, 100 μg/ml streptomycin: Gibco) and incubated at 37° C. with 5% CO2. […] MTS reagent was then directly added, incubated at 37° C. for 90 min, and absorbance of MTS formazan was read at 500 nm on an Omega 640 spectrophotometer. Percentage cell viability was normalized to the absorbance of untreated (DMSO) wells. […]

[3] = system: c-Myc transcription; test: c-Myc transcription in myeloma cells (qPCR); assay type: cell-based, human; conditions: 10 μM, after 24 hours
Method: as §1

[4] = system: myeloma cells; test: Senescence in myeloma cells; assay type: cell-based, human; conditions: 10 μM, after 72 hours
[5] = target: c-MYC G4 DNA (biotin-labeled Pu22 G-quadruplex); test: Surface plasmon resonance (SPR); assay type: binding; conditions: SPR, 25° C.; read-out: equilibrium dissociation constant (Kd)
Method: In order to quantitatively assess the binding affinity of Compound 1 with the c-MYC G4, surface plasmon resonance (SPR) experiments (De Crescenzo, et al., Cell Mol Bioeng 2008, 1, 204) were performed using a biotinylated c-MYC G4 oligonucleotide. The oligonucleotide was immobilized to a streptavidin-coated chip, and binding was measured as a function of concentration. (FIG. 2). […] Furthermore, Compound 1 interacts with quadruplex DNA through a reversible binding interaction, and rapid, complete dissociation can be observed in the sensogram (FIG. 2C).
SPR experiments were performed with a Biacore T200 (GE Healthcare). […] The c-MYC DNA was then captured (FC2: 1245 Ru) on a Series S Sensor CM5 Chip (GE Healthcare) with amine-coupled Neutravidin (FC1: 4466 Ru, FC2: 5458 Ru). Single Cycle Kinetics (SCK) experiments were carried out with five injections of increasing concentration of analyte solution, which was prepared by a three-fold serial dilution of compound with buffer (10 mM Tris pH 7.5, 100 mM KCl, 3 mM EDTA) containing 3% DMSO. Binding analysis was conducted at a flow rate of 30 μL/min at 25° C. In each run, the association phase and the subsequent dissociation phase were monitored for 1 min and 10 min, respectively. Prior to each compound injection, three buffer injections were made. […]

[6] = Pharmacokinetic evaluation, blood plasma levels by mass spectrometry; assay type: in vivo; conditions: single injection 19 mg/kg, female nude mice; for Tmax / half-life: mouse
Method: The blood plasma levels of Compound 23 after a single IP or IV injection (19 mg/kg) in female nude mice were determined by mass spectrometry (see FIG. 12 and the following table).

[7] = system: c-Myc protein in H1299 cells; test: c-Myc protein expression by Western blot, H1299; assay type: cell-based, human; conditions: 10 μM
Method: (§2) The effect of Compound 23 on the expression of c-Myc protein in the human lung cancer cell lines H1299 and H157 was also assayed. H1299 and H157 cells were treated with 10 μM Compound 23 and c-Myc protein expression levels quantified by Western blot. In Compound 23-treated H1299 cells, c-Myc protein expression levels were approximately 55% compared to untreated control cells. In Compound 23-treated H157 cells, c-Myc protein expression levels were approximately 74% compared to untreated control cells.

[8] = system: KMM1; test: Multiple myeloma cell viability; assay type: cell-based; conditions: KMM-1
Method: (§3) Human multiple myeloma and Burkitt's Lymphoma cell lines L363, CA46, MM-1R, KMS-11, and MM-1S were cultured and authenticated as previously described (Simmons, et al., Molecular oncology 2014, 8, 261). All plasma derived cell lines were cultured in RPMI-1640 (2 mM L-glutamine, 10% fetal bovine serum (FBS), 100 U/ml penicillin, 100 μg/ml streptomycin: Gibco) and incubated at 37° C. with 5% CO2. Viability experiments were performed in quadruplicate on 96-well plates (Costar) at designated time and dose points. MTS reagent was then directly added, incubated at 37° C. for 90 min, and absorbance of MTS formazan was read at 500 nm on an Omega 640 spectrophotometer. Percentage cell viability was normalized to the absorbance of untreated (DMSO) wells. In the case of cells harvested for their protein or RNA, pellets were flash frozen and stored at −80° C. overnight prior to use.
(§4) Additional multiple myeloma cell lines were assayed for cell viability in the presence of Compound 23, and the following IC50 values were determined.

[9] = system: AMO1; test: Multiple myeloma cell viability; assay type: cell-based; conditions: Homo sapiens
Method: as §3, §4

[10] = system: JIM1; test: Multiple myeloma cell viability; assay type: cell-based
Method: as §3, §4

[11] = system: c-Myc protein in H157 cells; test: c-Myc protein expression by Western blot, H157; assay type: cell-based, human; conditions: 10 μM
Method: as §2

Structure (SMILES)	cells undergoing apoptosis [1] [%]	cell viability [2]	decrease in c-Myc transcription [3]	senescent state [4]	Kd [5] [µM]	Kel ([6]; IP) [h⁻¹]	Kel ([6]; IV) [h⁻¹]	Tmax ([6]; IP) [h]	half-life ([6]; IP) [h]	Tmax ([6]; IV) [h]	half-life ([6]; IV) [h]	c-Myc protein expression levels compared to untreated control cells [7]	IC50 [8] [µM]	IC50 [9] [µM]	IC50 [10] [µM]	c-Myc protein expression levels compared to untreated control cells [11]
Cc1ccc(NC(=O)c2c(C)oc3ccc(O)c(CN4CCCCCC4)c23)cc1 [Compound 1]	13	negligible changes	seven-fold decrease	triggered a senescent state	4.5 ± 1.4	–	–	–	–	–	–	–	–	–	–	–
Cc1oc2ccc(O)c(CN3CCCCCC3)c2c1C(=O)Nc1ccc(C(F)(F)F)cc1 [Compound 23]	–	–	–	–	–	0.277	0.277	1	6.5	0.38	2.25	approximately 55%	4.13	5.92	6.35	approximately 74%
